# Test results: patent publication US12185723B2, “Herbicidally active 3-phenylisoxazoline-5-carboxamides of s-containing cyclopentenylcarboxylic esters” (Bayer Aktiengesellschaft, priority 2019, dated 2025)
# Columns and labels:
# Assay type in all cases: in vivo
# Alopecurus myosuroides = assay: Post-emergence herbicidal action against ALOMY; settings: 20 g a.i./ha, visual rating about 3 weeks after treatment
# Method: (§1) Post-Emergence Herbicidal Action Against Harmful Plants and Crop Plant Compatibility Seeds of monocotyledonous and dicotyledonous weeds and crop plants are placed in sandy loam in plastic or wood-fibre pots, covered with soil and cultivated in a greenhouse under controlled growth conditions. 2 to 3 weeks after sowing, the test plants are treated at the one-leaf stage. The compounds of the invention, formulated in the form of wettable powders (WP) or as emulsion concentrates (EC), are then sprayed onto the green parts of the plants as aqueous suspension or emulsion with addition of 0.5% additive at a water application rate of 600 l/ha (converted). After the test plants have been kept in the greenhouse under optimum growth conditions for about 3 weeks, the activity of the preparations is rated visually in comparison to untreated controls. For example, 100% activity=the plants have died, 0% activity=like control plants. [table]
# Avena fatua = assay: Post-emergence herbicidal action against AVEFA; settings: 20 g a.i./ha, visual rating about 3 weeks after treatment
# Method: as §1
# DIGSA = assay: Post-emergence herbicidal action against DIGSA; settings: 20 g a.i./ha, visual rating about 3 weeks after treatment
# Method: as §1, with “plants.” for “plants. [table]”
# Echinochloa crus-galli = assay: Post-emergence herbicidal action against ECHCG; settings: 20 g a.i./ha, visual rating about 3 weeks after treatment
# Method: as §1
# Lolium rigidum = assay: Post-emergence herbicidal action against LOLRI; settings: 20 g a.i./ha, visual rating about 3 weeks after treatment
# Method: as §1
# Setaria viridis = assay: Post-emergence herbicidal action against SETVI; settings: 20 g a.i./ha, visual rating about 3 weeks after treatment
# Method: as §1
# Abutilon theophrasti = assay: Post-emergence herbicidal action against ABUTH; settings: 20 g a.i./ha, visual rating about 3 weeks after treatment
# Method: as §1
# Amaranthus retroflexus = assay: Post-emergence herbicidal action against AMARE; settings: 20 g a.i./ha
# Method: as §1
# Pharbitis purpurea = assay: Post-emergence herbicidal action against PHBPU; settings: 20 g a.i./ha
# Method: as §1
# Polygonum convolvulus = assay: Post-emergence herbicidal action against POLCO; settings: 20 g a.i./ha
# Method: as §1
# Veronica persica = assay: Post-emergence herbicidal action against VERPE; settings: 20 g a.i./ha
# Method: as §1
SMILES,Herbicidal action against [%] ALOMY (Alopecurus myosuroides) [%],Herbicidal action against [%] AVEFA (Avena fatua) [%],Herbicidal action against [%] DIGSA (DIGSA) [%],Herbicidal action against [%] ECHCG (Echinochloa crus-galli) [%],Herbicidal action against [%] LOLRI (Lolium rigidum) [%],Herbicidal action against [%] SETVI (Setaria viridis) [%],Herbicidal action against [%] ABUTH (Abutilon theophrasti) [%],Herbicidal action against [%] AMARE (Amaranthus retroflexus) [%],Herbicidal action against [%] PHBPU (Pharbitis purpurea) [%],Herbicidal action against [%] POLCO (Polygonum convolvulus) [%],Herbicidal action against [%] VERPE (Veronica persica) [%]
COC1(C(=O)NC2C=CC(C(=O)OCCSC(C)C)C2)CC(c2cc(F)cc(F)c2)=NO1 (stereo not shown) [Example I-25],90,90,90,80,90,90,80,80,80,80,80
C=CC1(C(=O)NC2C=CC(C(=O)OCCSC)C2)CC(c2cc(F)cc(C#N)c2)=NO1 (stereo not shown) [Example I-39],90,90,90,90,90,90,80,80,80,80,90
CN(C)C(=O)SCCOC(=O)C1C=CC(NC(=O)C2(C)CC(c3cc(F)cc(F)c3)=NO2)C1 (stereo not shown) [Example I-04],100,80,80,80,–,80,80,–,80,–,80
CC1(C(=O)NC2C=CC(C(=O)OCCSCc3ccc(F)cc3)C2)CC(c2cc(F)cc(F)c2)=NO1 (stereo not shown) [Example I-09],90,90,90,90,90,90,80,90,80,80,90
CSCCOC(=O)C1C=CC(NC(=O)C2(CF)CC(c3cc(F)cc(F)c3)=NO2)C1 (stereo not shown) [Example I-74],–,–,90,90,90,–,90,80,–,–,80
C=CCSCCOC(=O)C1C=CC(NC(=O)C2(OC)CC(c3cc(F)cc(F)c3)=NO2)C1 (stereo not shown) [Example I-26],90,90,90,80,90,–,80,80,–,80,80
CSCCOC(=O)C1C=CC(NC(=O)C2(C)CC(c3cc(C)cc(F)c3)=NO2)C1 (stereo not shown) [Example I-59],–,–,90,80,–,–,–,80,80,–,80
COC1(C(=O)NC2C=CC(C(=O)OCCSC)C2)CC(c2cc(C)cc(F)c2)=NO1 (stereo not shown) [Example I-62],90,80,80,80,90,90,–,90,80,80,90
CC1(C(=O)NC2C=CC(C(=O)OCCS(C)(=O)=O)C2)CC(c2cc(F)cc(F)c2)=NO1 (stereo not shown) [Example I-14],90,80,90,80,90,90,–,90,80,–,90
C=CC1(C(=O)NC2C=CC(C(=O)OCCSC)C2)CC(c2cccc(F)c2)=NO1 (stereo not shown) [Example I-35],90,90,90,90,90,90,–,80,80,90,80
COC1(C(=O)NC2C=CC(C(=O)OCCSC(F)(F)F)C2)CC(c2cc(F)cc(F)c2)=NO1 (stereo not shown) [Example I-21],90,80,80,90,100,80,80,–,–,80,90
CSCCOC(=O)C1C=CC(NC(=O)C2(C)CC(c3cc(C)cc(Cl)c3)=NO2)C1 (stereo not shown) [Example I-75],90,80,90,90,–,90,80,–,80,–,80
CC(C)C(=O)SCCOC(=O)C1C=CC(NC(=O)C2(C)CC(c3cc(F)cc(F)c3)=NO2)C1 (stereo not shown) [Example I-05],100,–,80,80,–,80,–,–,80,80,80
CCSCCOC(=O)C1C=CC(NC(=O)C2(OC)CC(c3cc(F)cc(F)c3)=NO2)C1 (stereo not shown) [Example I-22],90,90,90,80,90,90,80,80,80,–,90
